Laboratory results: US7799799B2, “Indolizine derivatives, method for preparing same, and therapeutic compositions comprising same” (Sanofi-Aventis, priority 2005, dated 2010)
In brackets after ≈: the same amount, converted by molar mass. Structures can show the parent of a compound that is named as a salt.

Columns and labels:
[1] = at a pH of 3; cited from earlier work
[2] = Solubility test at pH=4 from phosphate buffer pH 6 0.1M, by HPLC; format: physicochemical; settings: for solubility at 5 min: aqueous buffer, thermodynamic from solid, phosphate buffer pH 6 0.1M, HPLC, first figure of the S/pH cell, the pH of the sample is the second; for pH (of the solubility sample): second figure of the S/pH cell, pH noted for the solubility sample
Description: The results for solubility, S, and pH are shown in the table below and are expressed in mg/ml.
A phosphate buffer, pH6, 0.1M, was prepared by adding 6.15 ml of 0.1M Na2HPO4 to 43.85 ml of 0.1M NaH2PO4. The solution was made up to 100 ml with filtered water using a Millipore system (trade mark).
Reference (Test Product in a Concentration in which the Latter is Soluble and which Acts as an Internal Reference)
About 0.2 mg (in a boat) was weighed out exactly and diluted in 1 ml of H2O/CH3CN: (50:50), i.e. 0.2 mg/ml, then the sample was subjected to ultrasound for 5 minutes.
About 4 mg (in a boat) was weighed out exactly and diluted in 400 μl (i.e. 10 mg/ml) of pH6 phosphate buffer (0.1M), then the sample was subjected to ultrasound for 5 minutes.
The pH was noted and if the pH was below 4, 1 μl of NaOH 1N was added (from 1 μl in 1 μl) until the pH was more than 4, then the pH was noted again. The solution (0.45 μm) was filtered then if necessary diluted with the phosphate buffer pH6. (If the product re-precipitated after diluting, the diluted sample was ignored, the mother solution was used and the solubility was determined at a wavelength other than λmax, to avoid saturating the signal.
The solubility of the compound was then determined by HPLC under the following conditions:
Instrument: Agilent 1100 chromatograph
Column temperature: 30° C. Flow rate: 0.8 ml/min Detection: λ=230 nm Injection volume: 5 μl

Q: Which “solubility in water S” value [1] does the source give for CCCCc1oc2ccc(NS(C)(=O)=O)cc2c1C(=O)c1ccc(OCCCN(CCCC)CCCC)cc1 [Dronedarone] here?
A: 0.247 mg/mL (≈ 444 µM)

Q: For CCCCc1cc2ccccn2c1C(=O)c1ccc(CCCN(CCC)CC2CC2)cc1 [compound 35, (2-butylindolizin-3-yl)(4-{3-[(cyclopropylmethyl)(propyl)amino]propyl}phenyl)methanone hydrochloride], which solubility at 5 min [2] is on record?
A: 4.4 mg/mL

Q: What about the “pH (of the solubility sample)” value [2] of the same molecule?
A: 4.75

Q: Which results are given for CCCNCCCCc1ccc(C(=O)c2c(CCC)cc3ccccn23)cc1.Cl [compound 36, {4-[4-(propylamino)butyl]phenyl}(2-propylindolizin-3-yl)methanone hydrochloride]?
A: solubility at 5 min [2]: 2.24 mg/mL; pH (of the solubility sample) [2]: 6.3

Q: With CCCCc1cc2ccccn2c1C(=O)c1ccc(CCCNCCC)cc1.Cl [compound 37, (2-butylindolizin-3-yl){4-[3-(propylamino)propyl]phenyl}methanone hydrochloride] as the molecule, how does the solubility at 5 min [2] read?
A: 1.78 mg/mL

Q: What about the “pH (of the solubility sample)” value [2] of the same molecule?
A: 7.14

Q: Which solubility at 5 min [2] does the source give for CCCCc1cc2ccccn2c1C(=O)c1ccc(CCCN(C)C)cc1.Cl [compound 38, (2-butylindolizin-3-yl){4-[3-(dimethylamino)propyl]phenyl}methanone hydrochloride] here?
A: 1.42 mg/mL

Q: Which solubility at 5 min [2] does the source give for CCCCc1cc2ccccn2c1C(=O)c1ccc(CCCN2C[C@@H](C)N[C@@H](C)C2)cc1 [compound 39, (2-butylindolizin-3-yl)(4-{3-[(3R,5S)-3,5-dimethylpiperazin-1-yl]propyl}phenyl)methanone hydrochloride] here?
A: > 10 mg/mL

Q: And the “pH (of the solubility sample)” value [2]?
A: 4.22

Q: With CCCCc1cc2ccccn2c1C(=O)c1ccc(CCCN2C[C@@H](C)N(C)[C@@H](C)C2)cc1 [compound 40, (2-butylindolizin-3-yl)(4-{3-[(3R,5S)-3,4,5-trimethylpiperazin-1-yl]propyl}phenyl)methanone hydrochloride] as the molecule, how does the solubility at 5 min [2] read?
A: 9.93 mg/mL

Q: What about the “pH (of the solubility sample)” value [2] of the same molecule?
A: 4.3

Q: With CCCCc1cc2ccccn2c1C(=O)c1ccc(CCCN(CCOC)CCOC)cc1 [compound 41, (4-{3-[bis(2-methoxyethyl)amino]propyl}phenyl)(2-butylindolizin-3-yl)methanone oxalate] as the molecule, how does the solubility at 5 min [2] read?
A: 7.19 mg/mL

Q: And the “pH (of the solubility sample)” value [2]?
A: 3.95

Q: With CCCCc1cc2ccccn2c1C(=O)c1ccc(CCCN2CCCCC2)cc1 [compound 42, (2-butylindolizin-3-yl)[4-(3-piperidin-1-ylpropyl)phenyl]methanone oxalate] as the molecule, how does the solubility at 5 min [2] read?
A: 1.66 mg/mL

Q: And the “pH (of the solubility sample)” value [2]?
A: 5.18

Q: With CCCCc1cc2ccc(C)cn2c1C(=O)c1ccc(CCCN(CCC)CCC)cc1 [compound 43, (2-butyl-6-methylindolizin-3-yl){4-[3-(dipropylamino)propyl]phenyl}methanone hydrochloride] as the molecule, how does the solubility at 5 min [2] read?
A: 4.46 mg/mL

Q: And the “pH (of the solubility sample)” value [2]?
A: 5.65

Q: Which solubility at 5 min [2] does the source give for CCCCc1cc2ccc(CC)cn2c1C(=O)c1ccc(CCCN(CCC)CCC)cc1 [compound 44, (2-butyl-6-ethylindolizin-3-yl){4-[3-(dipropylamino)propyl]phenyl}methanone hydrochloride] here?
A: > 10 mg/mL

Q: And the “pH (of the solubility sample)” value [2]?
A: 6.05
